Laboratory results published in US20220177508A1, “C10-Cyclic Substituted 13-Membered Macrolides and Uses Thereof” (Zikani Therapeutics, Inc., priority 2018, published 2022).
Values after ≈ are worked out from the molar mass of the structure shown.

Columns and labels:
Format in all cases: cell-based
S. aureus MP-12 = experiment: Broth dilution MIC determination (CLSI), S. aureus MP-12; conditions: Staphylococcus aureus, MP12; strain MP-12, broth dilution
E. coli MP-4 = experiment: Broth dilution MIC determination (CLSI), E. coli MP-4; conditions: Escherichia coli, MP4; strain MP-4, broth dilution; read-out: MIC E. coli MP-4
K. pneumoniae MP-546 = experiment: Broth dilution MIC determination (CLSI), K. pneumoniae MP-546; conditions: Klebsiella pneumoniae, MP546; strain MP-546, broth dilution
P. aeruginosa MP-3 = experiment: Broth dilution MIC determination (CLSI), P. aeruginosa MP-3; conditions: Pseudomonas aeruginosa, MP3; strain MP-3, broth dilution
A. baumannii MP-15 = experiment: Broth dilution MIC determination (CLSI), A. baumannii MP-15; conditions: Acinetobacter baumannii, MP15; strain MP-15, broth dilution; read-out: MIC A. baumanii MP-15

Structure (SMILES)	MIC (S. aureus MP-12)	MIC (E. coli MP-4)	MIC (K. pneumoniae MP-546)	MIC (P. aeruginosa MP-3)	MIC (A. baumannii MP-15)
C=CCN1CC=C([C@H]2[C@@H](C)OC(=O)C(C)(C)C(=O)[C@H](C)[C@@H](O[C@@H]3O[C@H](C)C[C@H](N(C)C)[C@H]3O)[C@](C)(OC)C[C@@H](C)CN2C)CC1 [Compound 1, (2R,3S,6R,8R,9R,10R)-3-(1-Allyl-1,2,3,6-tetrahydropyridin-4-yl)-9-(((2S,3R,4S,6R)-4-(dimethylamino)-3-hydroxy-6-methyltetrahydro-2H-pyran-2-yl)oxy)-8-methoxy-2,4,6,8,10,12,12-heptamethyl-1-oxa-4-azacyclotridecane-11,13-dione]	> 32 µg/mL	> 32 µg/mL	> 32 µg/mL	> 32 µg/mL	> 32 µg/mL
CCN(CC)[C@H](C)C(=O)N1CC([C@H]2COC(=O)C(C)(C)C(=O)[C@H](C)[C@@H](O[C@@H]3O[C@H](C)C[C@H](N(C)C)[C@H]3O)[C@](C)(OC)C[C@@H](C)CN2C)C1 [Compound 74, (3S,6R,8R,9R,10R)-3-(1-(diethyl-D-alanyl)azetidin-3-yl)-9-(((2S,3R,4S,6R)-4-(dimethylamino)-3-hydroxy-6-methyltetrahydro-2H-pyran-2-yl)oxy)-8-methoxy-4,6,8,10,12,12-hexamethyl-1-oxa-4-azacyclotridecane-11,13-dione]	> 32 µg/mL	< 4 µg/mL	4 to 32 µg/mL (≈ 5.86 to 46.9 µM)	> 32 µg/mL	> 32 µg/mL
CO[C@]1(C)C[C@@H](C)CN(C)[C@H](C2CN(CC(=O)NCc3ccccc3)C2)COC(=O)C(C)(C)C(=O)[C@H](C)[C@H]1O[C@@H]1O[C@H](C)C[C@H](N(C)C)[C@H]1O [Compound 20, N-benzyl-2-(3-((3R,6R,8R,9R,10R)-9-(((2S,3R,4S,6R)-4-(dimethylamino)-3-hydroxy-6-methyltetrahydro-2H-pyran-2-yl)oxy)-8-methoxy-4,6,8,10,12,12-hexamethyl-11,13-dioxo-1-oxa-4-azacyclotridecan-3-yl)azetidin-1-yl)acetamide]	4 to 32 µg/mL (≈ 5.69 to 45.5 µM)	< 4 µg/mL	4 to 32 µg/mL (≈ 5.69 to 45.5 µM)	> 32 µg/mL	> 32 µg/mL
CO[C@]1(C)C[C@@H](C)CN(C)[C@H](c2ccc(-c3cccnc3)cc2)COC(=O)C(C)(C)C(=O)[C@H](C)[C@@H]1O[C@@H]1O[C@@H](C)C[C@H](N(C)C)[C@H]1O [Compound 188]	> 32 µg/mL	> 32 µg/mL	> 32 µg/mL	> 32 µg/mL	> 32 µg/mL
CO[C@]1(C)C[C@@H](C)CN(CC(C)C)[C@H](C2CN(C(=O)CN(C)C)C2)COC(=O)C(C)(C)C(=O)[C@H](C)[C@H]1O[C@@H]1O[C@H](C)C[C@H](N(C)C)[C@H]1O [Compound 27, (3R,6R,8R,9R,10R)-9-(((2S,3R,4S,6R)-4-(dimethylamino)-3-hydroxy-6-methyltetrahydro-2H-pyran-2-yl)oxy)-3-(1-(dimethylglycyl)azetidin-3-yl)-4-isobutyl-8-methoxy-6,8,10,12,12-pentamethyl-1-oxa-4-azacyclotridecane-11,13-dione]	> 32 µg/mL	> 32 µg/mL	> 32 µg/mL	> 32 µg/mL	> 32 µg/mL
CO[C@]1(C)C[C@@H](C)CN(C)[C@H]([C@@H]2CCN(C(=O)CN(C)C)C2)COC(=O)C(C)(C)C(=O)[C@H](C)[C@H]1O[C@@H]1O[C@H](C)C[C@H](N(C)C)[C@H]1O [Compound 148, (3R,6R,8R,9R,10R)-9-(((2S,3R,4S,6R)-4-(Dimethylamino)-3-hydroxy-6-methyltetrahydro-2H-pyran-2-yl)oxy)-3-((R)-1-(dimethylglycyl)pyrrolidin-3-yl)-8-methoxy-4,6,8,10,12,12-hexamethyl-1-oxa-4-azacyclotridecane-11,13-dione]	> 32 µg/mL	< 4 µg/mL	4 to 32 µg/mL (≈ 6.11 to 48.9 µM)	> 32 µg/mL	> 32 µg/mL
CO[C@]1(C)C[C@@H](C)CN(C)[C@H](C2CCN(C(=O)CN3CCCC3)CC2)COC(=O)C(C)(C)C(=O)[C@H](C)[C@H]1O[C@@H]1O[C@H](C)C[C@H](N(C)C)[C@H]1O [Compound 9, (3R,6R,8R,9R,10R)-9-(((2S,3R,4S,6R)-4-(dimethylamino)-3-hydroxy-6-methyltetrahydro-2H-pyran-2-yl)oxy)-8-methoxy-4,6,8,10,12,12-hexamethyl-3-(1-(2-(pyrrolidin-1-yl)acetyl)piperidin-4-yl)-1-oxa-4-azacyclotridecane-11,13-dione]	> 32 µg/mL	4 to 32 µg/mL (≈ 5.76 to 46 µM)	4 to 32 µg/mL (≈ 5.76 to 46 µM)	> 32 µg/mL	> 32 µg/mL
CO[C@]1(C)C[C@@H](C)CN(C)[C@H](C2CC3CCC(C2)N3C(=O)CN(C)C)COC(=O)C(C)(C)C(=O)[C@H](C)[C@H]1O[C@@H]1O[C@H](C)C[C@H](N(C)C)[C@H]1O (stereo partly drawn) [Compound 6, (3R,6R,8R,9R,10R)-9-(((2S,3R,4S,6R)-4-(dimethylamino)-3-hydroxy-6-methyltetrahydro-2H-pyran-2-yl)oxy)-3-(8-(dimethylglycyl)-8-azabicyclo[3.2.1]octan-3-yl)-8-methoxy-4,6,8,10,12,12-hexamethyl-1-oxa-4-azacyclotridecane-11,13-dione]	> 32 µg/mL	4 to 32 µg/mL (≈ 5.76 to 46 µM)	4 to 32 µg/mL (≈ 5.76 to 46 µM)	> 32 µg/mL	> 32 µg/mL

Next, values leading:

MIC (S. aureus MP-12)	MIC (E. coli MP-4)	MIC (K. pneumoniae MP-546)	MIC (P. aeruginosa MP-3)	MIC (A. baumannii MP-15)	Structure (SMILES)
4 to 32 µg/mL (≈ 7.02 to 56.2 µM)	< 4 µg/mL	< 4 µg/mL	> 32 µg/mL	> 32 µg/mL	CO[C@]1(C)C[C@@H](C)CN(C)[C@@H]([C@H]2CCNC2)COC(=O)C(C)(C)C(=O)[C@H](C)[C@H]1O[C@@H]1O[C@H](C)C[C@H](N(C)C)[C@H]1O [Compound 40, (3S,6R,8R,9R,10R)-9-(((2S,3R,4S,6R)-4-(Dimethylamino)-3-hydroxy-6-methyltetrahydro-2H-pyran-2-yl)oxy)-8-methoxy-4,6,8,10,12,12-hexamethyl-3-((S)-pyrrolidin-3-yl)-1-oxa-4-azacyclotridecane-11,13-dione]
> 32 µg/mL	< 4 µg/mL	< 4 µg/mL	> 32 µg/mL	> 32 µg/mL	CO[C@]1(C)C[C@@H](C)CN(C)[C@H]([C@@H]2CCN(C)C2)COC(=O)C(C)(C)C(=O)[C@H](C)[C@H]1O[C@@H]1O[C@H](C)C[C@H](N(C)C)[C@H]1O [Compound 182, (3R,6R,8R,9R,10R)-9-(((2S,3R,4S,6R)-4-(dimethylamino)-3-hydroxy-6-methyltetrahydro-2H-pyran-2-yl)oxy)-8-methoxy-4,6,8,10,12,12-hexamethyl-3-((R)-1-methylpyrrolidin-3-yl)-1-oxa-4-azacyclotridecane-11,13-dione]
4 to 32 µg/mL (≈ 6.69 to 53.5 µM)	< 4 µg/mL	< 4 µg/mL	> 32 µg/mL	> 32 µg/mL	CO[C@]1(C)C[C@@H](C)CN(C)[C@H](C2CCN(C)CC2)COC(=O)C(C)(C)C(=O)[C@H](C)[C@H]1O[C@@H]1O[C@H](C)C[C@H](N(C)C)[C@H]1O [Compound 43, (3R,6R,8R,9R,10R)-9-(((2S,3R,4S,6R)-4-(dimethylamino)-3-hydroxy-6-methyltetrahydro-2H-pyran-2-yl)oxy)-8-methoxy-4,6,8,10,12,12-hexamethyl-3-(1-methylpiperidin-4-yl)-1-oxa-4-azacyclotridecane-11,13-dione]
> 32 µg/mL	4 to 32 µg/mL (≈ 5.98 to 47.8 µM)	> 32 µg/mL	> 32 µg/mL	> 32 µg/mL	CO[C@]1(C)C[C@@H](C)CN(C)[C@H]([C@H]2CCCN(C(=O)CN(C)C)C2)COC(=O)C(C)(C)C(=O)[C@H](C)[C@H]1O[C@@H]1O[C@H](C)C[C@H](N(C)C)[C@H]1O [Compound 96, (3R,6R,8R,9R,10R)-9-(((2S,3R,4S,6R)-4-(dimethylamino)-3-hydroxy-6-methyltetrahydro-2H-pyran-2-yl)oxy)-3-((S)-1-(dimethylglycyl)piperidin-3-yl)-8-methoxy-4,6,8,10,12,12-hexamethyl-1-oxa-4-azacyclotridecane-11,13-dione]
4 to 32 µg/mL (≈ 6.41 to 51.3 µM)	< 4 µg/mL	< 4 µg/mL	> 32 µg/mL	4 to 32 µg/mL (≈ 6.41 to 51.3 µM)	CO[C@]1(C)C[C@@H](C)CN(C)[C@H](C2CN(CC3CCC3)C2)COC(=O)C(C)(C)C(=O)[C@H](C)[C@H]1O[C@@H]1O[C@H](C)C[C@H](N(C)C)[C@H]1O [Compound 17, (3R,6R,8R,9R,10R)-3-(1-(cyclobutylmethyl)azetidin-3-yl)-9-(((2S,3R,4S,6R)-4-(dimethylamino)-3-hydroxy-6-methyltetrahydro-2H-pyran-2-yl)oxy)-8-methoxy-4,6,8,10,12,12-hexamethyl-1-oxa-4-azacyclotridecane-11,13-dione]
> 32 µg/mL	4 to 32 µg/mL (≈ 6.69 to 53.5 µM)	> 32 µg/mL	> 32 µg/mL	> 32 µg/mL	CO[C@]1(C)C[C@@H](C)CN(C)[C@H]([C@@H]2CCCN(C)C2)COC(=O)C(C)(C)C(=O)[C@H](C)[C@H]1O[C@@H]1O[C@H](C)C[C@H](N(C)C)[C@H]1O [Compound 113, (3R,6R,8R,9R,10R)-9-(((2S,3R,4S,6R)-4-(dimethylamino)-3-hydroxy-6-methyltetrahydro-2H-pyran-2-yl)oxy)-8-methoxy-4,6,8,10,12,12-hexamethyl-3-((R)-1-methylpiperidin-3-yl)-1-oxa-4-azacyclotridecane-11,13-dione]
> 32 µg/mL	> 32 µg/mL	> 32 µg/mL	> 32 µg/mL	> 32 µg/mL	CO[C@]1(C)C[C@@H](C)CN(C)[C@@H]([C@H]2CCCN(C(C)C)C2)COC(=O)C(C)(C)C(=O)[C@H](C)[C@H]1O[C@@H]1O[C@H](C)C[C@H](N(C)C)[C@H]1O [Compound 56, (3S,6R,8R,9R,10R)-9-(((2S,3R,4S,6R)-4-(dimethylamino)-3-hydroxy-6-methyltetrahydro-2H-pyran-2-yl)oxy)-3-((S)-1-isopropylpiperidin-3-yl)-8-methoxy-4,6,8,10,12,12-hexamethyl-1-oxa-4-azacyclotridecane-11,13-dione]
